{"source": "patent US20170191058A1", "about": "“PERFORIN 2 DEFENSE AGAINST INVASIVE AND MULTIDRUG RESISTANT PATHOGENS” (priority 2012, published 2017)", "molecules": {"B1": {"name": "IL-1α: recombinant murine IL-1α (protein, UniProt P01582 115-270, looked up)", "Interleukin-1 alpha": "SAPYTYQSDLRYKLMKLVRQKFVMNDSLNQTIYQDVDKHYLSTTWLNDLQQEVKFDMYAYSSGGDDSKYPVTLKISDSQLFVSAQGEDQPVLLKELPETPKLITGSETDLIFFWKSINSKNYFTSAAYPELFIATKEQSRVHLARGLPSMTDFQIS"}}, "key": {"P-2 mRNA": {"test_system": "P-2 mRNA", "experiment": "P-2 mRNA expression in mEF by TAQMAN PCR after cytokine treatment", "type": "cell-based, murine", "details": "added singly, 14 hours", "experimental": "(§1) Murine embryonic fibroblasts (FIG. 14A), a rectal cancer cell line (FIG. 14B), myoblast cell line (FIG. 14C), and an ovarian cell line (FIG. 14D) were treated for 14 hours with 100 U/ml interferon-α, interferon-β, and interferon-γ treated. LPS was treated at 1 ng/ml; IL-1α at 10 U/ml, IL-1β at 1 ng/ml, and TNFα at 20 ng/mL. A human embryonic kidney cell line (FIG. 14E) and cervical cancer cell line (FIG. 14F) were treated with human IFN-α at 150 U/ml, IFN-β and IFN-γ at 100 U/ml. The BV2 microglial cell line was stimulated with 100 U/ml of murine Interferon-γ for 14 hours to upregulate P-2 mRNA and protein. mEF treated with IFN-γ for 14 hours (mEF), or IFN-γ for 14 hours followed by 1 hour of treatment with […] MG-132 (mEF+MG132) (FIG. 14G). Human primary keratinocytes were analyzed for protein expression with indicated recombinant human IFN treatment (FIG. 14H). mEF were treated with E. coli or M. smegmatis. At indicated time points, cells were harvested and analyzed for P-2 mRNA and compared to uninfected controls by TAQMAN™ PCR. (FIG. 14I) mEF were either not stimulated, or stimulated for 14 hours with IFN-γ at 100 U/ml. After stimulation, mEF were infected with M. smegmatis and analyzed for colony forming units at indicated time points.\nRecombinant murine IL-1α, IL-1β, TNFα, IFN-γ, IFN-α, IFN-β recombinant human IFN-γ, IFN-β were purchased from preprotech. Recombant human IFN-α was purchased from R&D systems. Murine […] was supplemented at 10 U/mL where indicated. Murine IL-1β was supplemented at 1 ng/ml. Murine TNFα was supplemented at 20 ng/ml. Murine IFN-α, IFN-β and IFN-γ was supplemented with 100 U/ml. Human IFN-α was supplemented where indicated in at a concentration of 150 U/ml where indicated. Human IFN-β and IFN-γ was supplemented at a concentration of 100 U/ml. LPS was added at a concentration of 1 ng/ml.\nRNA was extracted from cells following RNeasy (Qiagen) instructions. One μg of RNA was converted to cDNA using QuantiTect Reverse Transcription kit (Qiagen) following supplier's protocol. qRT-PCR was performed using TAQMAN® Gene Expression Assays (Applied Biosystems) for murine Mpeg1 and GAPDH, with the later serving as a housekeeping control gene. For human tissues, human Mpeg1 and GapDH probes were utilized. All assays were performed on the Applied Biosystems 7300 PCR platform."}, "P-2 protein": {"test_system": "P-2 protein", "experiment": "Western blot of P-2 protein in interferon-activated mEF", "type": "cell-based, murine", "details": "IFN-γ 14 hours then 1 hour MG-132", "experimental": "as §1\nRabbit anti-Mpeg1 polyclonal antibody was obtained from Abcam and used for western blot analysis."}, "Salmonella": {"test_system": "Salmonella", "experiment": "Gentamycin protection assay: intracellular Salmonella in mEF", "type": "cell-based, Salmonella typhimurium", "experimental": "Mouse rectal carcinoma CMT-93 was transiently transfected with a P-2 siRNA pool, or with P-2-RFP. Scramble siRNA or RFP were also transfected and analyzed to serve as controls for P-2 siRNA and P-2-RFP respectively. All transfections were performed 24 hours prior to infection. 14 hours prior to infection, cells were incubated with 100 U/ml of species specific IFN-γ. At indicated time points after infection, cells were lysed and plated for CFU analysis. (FIGS. 16A-16D) mEF were transfected with P-2siRNA and complemented with siRNA resistant P-2-RFP cDNA 24 hours prior to infection. 14 hours prior to infection, interferon-γ was added. mEF were infected with late log phase S. typhimurium. At indicated time points mEFs were lysed and analyzed for colony forming units. […]\nS. typhimurium strain LT2Z), Mycobacterium smegmatis, methicillin-resistant Staphylococcus aureus, and E. coli strain K12 were grown from glycerol stocks at 37° C. with shaking for 24 hours in Luria broth (S. typhimurium, S. aureus, and E. coli) or Middlebrook 7H9 broth (M. smegmatis). […] At indicated time points, cells were washed with PBS, lysed using 1% Igepal in ddH2O, diluted and plated in technical triplicate on LB agar plates (S. typhimurium, S. aureus, E. coli) or Middlebrook 7H11 plates (M. smegmatis) and CFU determined after sufficient colony growth."}, "[1]": {"test_system": "E. coli, S. typhimurium and M. smegmatis", "experiment": "Bacterial growth in medium with ROS/NO inhibitors, no PEM (OD 600)", "type": "cell-based", "details": "10 mM, IMDM+10% FBS, 5 hours", "experimental": "E. coli, S. typhimurium and M. smegmatis were grown in IMDM+10% FBS in the presence or absence of NAC (10 mM) or L-NAME (10 mM) for 5 hours. Bacterial growth was measured by spectrophotometer at an OD of 600 nm at 1 and 4 hours after addition of inhibitors to the culture medium."}, "S. typhimurium": {"test_system": "S. typhimurium", "experiment": "Gentamycin protection assay: intracellular S. typhimurium in peritoneal macrophages (PEM)", "type": "cell-based, Salmonella typhimurium", "details": "for additional effect on intracellular replication/killing when combined with P-2 knockdown: inhibitor plus P-2 siRNA knock down; for effect on intracellular killing of Salmonellae: single effector blocked, 1-5 h post-infection", "experimental": "(§2) Gentamicin protection assay: S. typhimurium strain LT2Z, Mycobacterium avium, Mycobacterium smegmatis (ATCC), methicllin resistant Staphylococcus aureus and K12 E. coli were grown from glycerol stocks at 37° C. with shaking for 16-18 hr in Luria broth (LB) (S. typhimurium, S. aureus, and E. coli) or Middlebrook 7H9 broth (Mycobacteria) prior to infection. For Salmonella, the culture was then diluted 1:33 in LB and grown for another 3 hours to induce invasive phenotype. Macrophages or microglial cells were plated (5×10^5 cells/well of a 12 well plate) and stimulated overnight with LPS (Ing/ml) and IFN-γ (100 U/ml). Cells were infected the next day at indicated MOI for 30 minutes (S. typhimurium,) or 1 hour (all other bacteria) in 37° C., 5% CO2 incubator. Cells were washed twice with PBS and fresh medium containing 50 μg/ml gentamicin was added. After 2 hours the concentration of gentamicin was lowered to 5 μg/ml. At the indicated timepoints after adding gentamicin, the cells were washed with PBS, lysed using 0.1% Triton-X in water, diluted and plated in triplicate on agar plates and CFU determined.\nThe current understanding of bactericidal responses in macrophages is that they are mediated by oxidative mechanisms, such as ROS and NO within the phagosome, and by phagosome-lysosome fusion. To assess the role of P-2 in comparison to ROS and NO in intracellular killing of bacteria, each of the bactericidal effectors was blocked individually or in combination with P-2, and intracellular bacterial survival in peritoneal macrophages (PEM) measured between 1 and 5 hours post-infection utilizing the gentamycin protection assay (FIGS. 1A-1C). Gentamycin is membrane impermeable and present only in the extracellular medium. Inhibition of ROS, NO or P-2 individually had different effects on different bacteria. Using S. typhimurium, ˜90% bacteria present intracellularly in PEM at 1 h were dead at 5 h in the absence of inhibitors (˜10% survival, FIG. 1 A). […] In other words without P-2 ROS and NO have little effect on killing of Salmonellae.\nHere we analyze the bactericidal efficiency of each effector pathway and their synergism. We blocked each effector individually and determined intracellular survival and replication or killing of intracellular S. typhimurium and M. smegmatis. These experiments were carried out with intestinal epithelial cells (CMT93) (not shown) and in IFN-γ activated PEM (FIG. 27e) with virtually identical results. First, we ascertained that IFN-γ activated and LPS stimulated PEM produced ROS and NO and that this production is not affected by P-2 siRNA knock down. We also ascertained that the ROS and NO inhibitors used were specific and active in blocking ROS or NO (not shown). PEM are able to kill about 90% of intracellular Salmonella in the first four hours after infection when all three effectors were active in scramble siRNA transfected cells (FIG. 27e, solid lines). […] M. smegmatis is more resistant to killing by bactericidal effectors within 4 hours. […] Blockade of ROS or NO without P-2 knock down had only limited, non-significant effects on bactericidal activity against Mycobacteria.\nIntracellular bactericidal activity was adapted from. In brief, bacteria were grown at 37° C. with shaking for 16-18 hours in Luria broth (LB) (S. typhimurium, S. aureus, and E. coli) or 24 hours in Middlebrook 7H9 broth (Mycobacteria) prior to infection. For S. typhimurium, E. coli, and S. aureus the culture was then diluted 1:33 in LB and grown for another 3 hours to allow the bacteria to enter log phase and for Salmonella to induce the invasive phenotype. Eukaryotic cells were transfected following Lonza's optimized protocol for the respective cells, and plated into 12-well plates post-transfection. […]"}, "[2]": {"test_system": "E. coli, S. typhimurium, M. smegmatis", "experiment": "Gentamycin protection assay in PEM infected with E. coli, S. typhimurium or M. smegmatis (FIG. 1)", "type": "cell-based", "details": "10 mM NAC, 10 mM L-NAME or pool of 3 siRNAs, CFU at 1 h and 5 h", "experimental": "The gentamycin protection assay was carried out as in FIGS. 2A-2F. 24 h after transfection with P-2 siRNA or scrambled siRNA. PEM were infected with (FIG. 1A) E. coli, (FIG. 1B) S. typhimurium, or (FIG. 1C) M. smegmatis. Inhibitors were added 1 h before infection and maintained throughout assay. Cells were lysed and CFU determined at 1 h and 5 h post-infection. Data shown are representative of 3 experiments with 2 replicates; asterisks denote significance (p<0.05) based on students t-test.\nas §2, with “Cells were infected the next day at indicated MOI for 30 minutes (S. typhimurium,) or 1 hour (all other bacteria) in 37° C., 5% CO2 incubator. Cells were washed twice with PBS and fresh medium containing 50 μg/ml gentamicin was added. After 2 hours the concentration of gentamicin was lowered to 5 μg/ml.” left out"}}, "note": "Entries after “also recorded” stand apart in the source; their conditions may differ. Residues, ends and D or L forms follow the SMILES beside them. *: point of attachment. Cbz = O=C(OCc1ccccc1)*", "data": [{"molecule": "IFNα", "values": [{"measurement": "P-2 mRNA induction in mEF", "setting": "P-2 mRNA", "value": "up-regulates P-2 mRNA"}]}, {"molecule": "CC(C)C[C@@H](C=O)NC(=O)[C@H](CC(C)C)NC(=O)[C@H](CC(C)C)NC(=O)OCc1ccccc1", "note": "[MG132] (Cbz-Leu-Leu-Leu-aldehyde)", "values": [{"measurement": "detection of P-2 protein by Western blot", "setting": "P-2 protein", "value": "P-2 protein is not detected by Western blot analysis of interferon-activated mEF unless the proteasome inhibitor MG132 is added"}]}, {"molecule": "TNFα", "values": [{"measurement": "P-2 mRNA induction in mEF", "setting": "P-2 mRNA", "value": "do not induce P-2 mRNA"}]}, {"molecule": "Cn1cnc(N)c2ncnc1-2", "note": "[3-MA, 3-methyl-adenine]", "values": [{"measurement": "effect on intracellular Salmonella replication in mEF", "setting": "Salmonella", "value": "permits Salmonella replication; also recorded: allows replication of Salmonella"}]}, {"molecule": "CC(=O)N[C@@H](CS)C(=O)O", "note": "[NAC, N-Acetylcysteine]", "values": [{"measurement": "effect on bacterial growth in the absence of PEM", "setting": "[1]", "value": "do not directly inhibit bacterial growth"}, {"measurement": "survival of Salmonellae at 5 h compared to 1 h levels", "setting": "S. typhimurium; inhibitor 10 mM, added 1 h before infection, ~10% survival without inhibitors", "value": "~80", "unit": "%"}, {"measurement": "additional effect on intracellular replication/killing when combined with P-2 knockdown", "setting": "S. typhimurium", "value": "did not further increase intracellular replication; also recorded: no further effect"}, {"measurement": "effect on intracellular killing of Salmonellae", "setting": "S. typhimurium", "value": "slows down the killing activity"}, {"measurement": "intracellular killing", "setting": "[2]", "value": "Intracellular killing was inhibited"}]}, {"molecule": "COC(=O)[C@@H](N)CCCN=C(N)N[N+](=O)[O-].Cl", "note": "[L-NAME, N^G-nitro-L-arginine-methyl ester hydrochloride]", "values": [{"measurement": "effect on bacterial growth in the absence of PEM", "setting": "[1]", "value": "do not directly inhibit bacterial growth"}, {"measurement": "additional effect on intracellular replication/killing when combined with P-2 knockdown", "setting": "S. typhimurium; hydrochloride", "value": "did not further increase intracellular replication"}, {"measurement": "additional effect on intracellular replication/killing when combined with P-2 knockdown", "setting": "S. typhimurium; listed as NAME, hydrochloride", "value": "no further effect"}, {"measurement": "effect on intracellular killing of Salmonellae", "setting": "S. typhimurium; hydrochloride", "value": "slows down the killing activity"}, {"measurement": "intracellular killing", "setting": "[2]", "value": "Intracellular killing was inhibited"}]}, {"molecule": "B1", "values": [{"measurement": "P-2 mRNA induction in mEF", "setting": "P-2 mRNA", "value": "do not induce P-2 mRNA"}]}]}
